Entries after “also recorded” stand apart in the source; their conditions may differ. Read-outs that look alike come from different tables or passages of the source.
Columns and labels:
Aldh3a1 [1] = test: mRNA expression of Aldh3a1 in Hepa1c1c7 cells (real-time PCR); type: cell-based, mouse; details: 24 hours, SF 1 or 3 μM, TP-225 0.003 or 0.01 μM, BNF 0.3 or 1 μM
Experimental: Total RNA was extracted from Hepa1c1c7 cells that had been exposed to serial dilutions of inducers for 24 h, or from RNA-stabilized tissues (stored in TRizol) from mice, followed by reverse transcription into cDNA. The cDNA was subjected to quantitative real-time PCR analysis by using SYBR Green fluorescence with 7000 Sequence Detection System. […] Relative expressions of individual mRNAs for ALDH were normalized to β-actin as an endogenous control, and the expression rate was calculated using the comparative ΔΔCt method.

ALDH [2] = test: Total ALDH activity in Hepa1c1c7 cell homogenates (propionaldehyde substrate, fluorimetric); type: cell-based, mouse
Experimental: To determine total ALDH activity, Hepa1c1c7 or MEF cells were plated into 6-cm plates at 6.0×10^5 or 1.2×10^6 cells/plate, incubated for 24 h at 37° C. in a 5% CO2 atmosphere, and then treated with serial dilutions of inducers. The inducers were dissolved in acetonitrile or DMSO and added to medium so that final concentrations of the solvents was less than 0.5 or 0.1% v/v, respectively. […] The assay was started by addition of 10 μL of 90 mM propionaldehyde, bringing the total volume to 200 μL. […] Blank reaction rates without propionaldehyde were also determined.

NQO1 [3] = test: NQO1 activity in Hepa1c1c7 cells (Prochaska assay, menadione substrate); type: cell-based, mouse; details: 48 h
Experimental: The lysates of Hepa1c1c7 cells which were plated in 96-well plates at 10^4 cells per well, grown for 24 h, and then exposed to serial dilutions of inducers for 48 h.

ALDH [4] = details: 1 week; for Cytosolic/microsomal and mitochondrial ALDH activities, fold above control: glandular-stomach
Experimental: (§1) All animal experiments were performed in compliance with National Institute of Health Guidelines and those of Animal Care and Use Committee of the Johns Hopkins University. […] After 1 week on these diets, mice were euthanized and their liver, forestomach, glandular stomach, and upper small intestine were harvested, frozen in liquid nitrogen, and stored at −80° C. until analyzed. A small portion of each tissue was stored in RNA stabilizing solution at 4° C. until total RNA extraction.
To determine total ALDH activity, Hepa1c1c7 or MEF cells were plated into 6-cm plates at 6.0×10^5 or 1.2×10^6 cells/plate, incubated for 24 h at 37° C. in a 5% CO2 atmosphere, and then treated with serial dilutions of inducers. The inducers were dissolved in acetonitrile or DMSO and added to medium so that final concentrations of the solvents was less than 0.5 or 0.1% v/v, respectively. After 48 h of treatment, cells were washed twice with PBS, scraped from the plates, and homogenized in micro-homogenizers at 4° C. The homogenates were centrifuged at 5,000×g for 15 min at 4° C. and the supernatant fractions were collected. ALDH activity was measured fluorimetrically in 96-well plates (white-walled) by modification of the method of Koivula et al. (1975). The assay mixture (190 μL) contained 70 mM sodium pyrophosphate buffer (pH 8.0), 1.67 mM pyrazole, 1.33 mM NAD, and supernatant fraction. The assay was started by addition of 10 μL of 90 mM propionaldehyde, bringing the total volume to 200 μL. The initial velocity of NADH generation was measured (λex 340 nm and λem 460 nm) at 25° C. for 10 min in a micro-plate fluorometer. Blank reaction rates without propionaldehyde were also determined. The ALDH velocity was normalized to the protein concentration and expressed as a change in fluorescent units per min per mg of protein.
To determine ALDH activities of cytosolic/microsomal and mitochondrial fractions individually, cells or harvested tissues were homogenized at 4° C. in 10 mM Tris-HCl (pH 7.4) containing 0.25 M sucrose and 1 mM 2-mercaptoethanol and centrifuged at 750×g for 15 min to remove nuclei and cell debris. Supernatant fractions were then centrifuged twice at 12,000×g for 20 min to obtain the cytosolic/microsomal and the precipitated mitochondrial fractions. Mitochondrial fractions were suspended in 0.25 M sucrose, diluted with one-half volume of 1% sodium bicarbonate containing 1% sodium deoxycholate (w/v), and sonicated in a Branson Sonicator at 4° C. for five (5) 2-minute periods for a total of 10 min before assays.

[5] = 20 μmol SF/3 g diet/day 1 week, then 2.0 g/kg ethanol oral
Experimental: (§2) After fasting overnight, they were gavaged with 35% (v/v) ethanol solution at a dose of 2.0 g/kg. Before, and 0.5, 1, 2, 3, 4, and 6 h after administration of ethanol, 20 μL of blood were collected by nicking the tail vein. The mice were then euthanized and their blood, liver, stomach and upper intestine were collected.
(§3) Blood ethanol and acetaldehyde levels in mice were determined enzymatically by modification of the method of Tottmar et al. (Tottmar 1978). Whole blood samples (20 μL) were obtained by repeated incisions of mouse tail veins. The blood was immediately mixed with 200 μL of 4% (v/v) perchloric acid (PCA) in sealed tubes at 4° C., incubated for 10 min, and then centrifuged at 3000×g for 10 min. The pH values of the supernatant fractions were adjusted to 7.5-8.0 by adding 20 μL of 3 M K2CO3 in new tubes. After removing precipitated KClO4 by centrifugation at 3000×g for 10 min, supernatant fractions were stored in sealed tubes at 4° C. until assayed.

glutathione = details: intake of SF; cited from earlier work
[6] = 5 or 20 μmol SF/3 g diet/day, 1 week
Experimental: as §1

NQO1 [7] = details: liver, both parts of stomach, upper intestine; high dose 20 μmol SF/3 g diet/day, 1 week
Experimental: as §1

[8] = human research studies; cited from earlier work
Aldh3a1 [9] = details: SF diet 1 week
Experimental: as §1
(§4) Total RNA was extracted from Hepa1c1c7 cells that had been exposed to serial dilutions of inducers for 24 h, or from RNA-stabilized tissues (stored in TRizol) from mice, followed by reverse transcription into cDNA. The cDNA was subjected to quantitative real-time PCR analysis by using SYBR Green fluorescence with 7000 Sequence Detection System. All primers used in this study were designed based on previous reports. Relative expressions of individual mRNAs for ALDH were normalized to β-actin as an endogenous control, and the expression rate was calculated using the comparative ΔΔCt method.

Aldh1a1 = details: liver, SF diet 1 week
Experimental: as §1, §4

Aldh2 = details: liver, SF diet 1 week
Experimental: as §1, §4

[10] = Experimental: as §2, §3
Determination of acetaldehyde was performed in 10 mm quarts fluorescence cuvettes in a final volume of 2.33 mL assay mixture containing of assay mixture containing 50 mM sodium pyrophosphate (pH 8.8), 0.1 mM pyrazole, 0.1 mM NAD and 0.2 units/mL of purified ALDH (potassium activated from baker's yeast) with a luminescence spectrophotometer. Before and 5 min after addition of 170 μL of the supernatant, intensities were monitored (λex: 340 nm and λem: 460 nm). The acetaldehyde level in blood was calculated from change of intensity using acetaldehyde standard curve with range from 1.56 to 50 μM in blood. The standard curve was made by applying serial dilution of acetaldehyde to PCA treatment process same as blood.

ALDH in Nrf2−/− MEFs = details: stepwise concentration of SF, 48 h
Experimental: (§5) All cell lines were grown in 5% CO2 at 37° C. Murine hepatoma cell line, Hepa1c1c7 was cultured in α-MEM supplemented with 10% (v/v) heat inactivated FBS. Mouse embryo fibroblasts (MEFs) derived from day 13.5 embryos of wild-type or Nrf2-knockout C57BL/6 mice were cultured in Iscoves Modified Dulbecco's Medium (with L-glutamine) supplemented with human recombinant epidermal growth factor (10 ng/mL), 1× insulin/transferring/selenium, and 10% (v/v) heat-inactivated FBS.
(§6) To determine total ALDH activity, Hepa1c1c7 or MEF cells were plated into 6-cm plates at 6.0×10^5 or 1.2×10^6 cells/plate, incubated for 24 h at 37° C. in a 5% CO2 atmosphere, and then treated with serial dilutions of inducers. The inducers were dissolved in acetonitrile or DMSO and added to medium so that final concentrations of the solvents was less than 0.5 or 0.1% v/v, respectively. […] ALDH activity was measured fluorimetrically in 96-well plates (white-walled) by modification of the method of Koivula et al. (1975). […] The initial velocity of NADH generation was measured (λex 340 nm and λem 460 nm) at 25° C. for 10 min in a micro-plate fluorometer. Blank reaction rates without propionaldehyde were also determined. The ALDH velocity was normalized to the protein concentration and expressed as a change in fluorescent units per min per mg of protein.

ALDH in WT MEFs = details: stepwise concentration of SF, 48 h
Experimental: as §5, §6

[11] = liver, high dose 20 μmol SF/3 g diet/day

With `CC1(C)CC[C@]2(C#N)CC[C@]3(C)[C@H](C(=O)C=C4[C@@]5(C)C=C(C#N)C(=O)C(C)(C)[C@@H]5CC[C@]43C)[C@@H]2C1` [TP-225] as the compound, how does the “Aldh3a1 mRNA expression, fold increase” value (Aldh3a1 [1]) read?
The value was about 5 fold.

And the “CD value (concentration required to double the enzyme activity) for induction of ALDH” value (ALDH [2]; Hepa1c1c7 cells, 48 h)?
Its value is 0.0016 µM.

What about the “CD value (concentration required to double the enzyme activity) for induction of NQO1” value (NQO1 [3]) of the same compound?
The value was 0.00038 µM.

For `Oc1ccc(C=Cc2cc(O)cc(O)c2)cc1` [resveratrol, reference compound], which “CD value (concentration required to double the enzyme activity) for induction of ALDH” value (ALDH [2]; Hepa1c1c7 cells, 48 h) is on record?
The value was 120.7 µM.

And the “CD value (concentration required to double the enzyme activity) for induction of NQO1” value (NQO1 [3])?
The value was over 50 µM.

Which results are given for `C[S@@+]([O-])CCCCN=C=S` [SF, 1-isothiocyanato-4R-(methylsulfinyl)butane]?
Cytosolic/microsomal and mitochondrial ALDH activities, fold above control (ALDH [4]; (high) 20 μmol SF/3 g diet/day): 5.1 fold; Cytosolic/microsomal and mitochondrial ALDH activities, fold above control (ALDH [4]; (low) 5 μmol SF/3 g diet/day): 4.1 fold; Cytosolic/microsomal ALDH activity, fold increase (ALDH [4]; [11]): 1.4 fold; Mitochondrial ALDH activity, fold increase (ALDH [4]; [11]): 1.5 fold; AUC of blood ethanol vs control [5]: no significant difference; Effect on blood ethanol level ([5]; only in descending phase): slightly affected; Aldh3a1 mRNA expression, fold increase (Aldh3a1 [1]): ~5 fold; Total ALDH activity, fold above control levels (ALDH [2]; 3 μM SF, additional 6 hours after first 12 h): 1.5 fold; Total ALDH activity, fold above control levels (ALDH [2]; 3 μM SF, additional 12 hours after first 12 h): 1.9 fold; Total ALDH activity, fold above control levels (ALDH [2]; 3 μM SF, additional 24 hours after first 12 h): 2.1 fold; Total ALDH activity vs control (ALDH [2]; 3 μM SF, first 12 h): not increased; Concentration at which significant effects on total ALDH activity were observed (ALDH [2]; Hepa1c1c7 cells, 48 hours treatment): ≥ 0.3 µM; Effect on total ALDH activity (ALDH [2]; Hepa1c1c7 cells, serial concentrations, 48 h): dramatically and dose dependently increased; also recorded: increased total ALDH activity in Hepa1c1c7 cells in a dose dependent manner; Treatment time after which total ALDH activity increased (ALDH [2]; time course measurement, treatment with SF): 12 to 18 h; Glutathione levels in liver (glutathione): increased glutathione levels in liver; Body weights vs control group [6]: no significant differences; Food intakes vs control group [6]: no significant differences; NQO1 activity, fold increase compared to control (NQO1 [7]): ≤ 2.2 fold; Adverse effects on administration [8]: not shown any significant adverse effects; Aldh3a1 expression, fold increase (Aldh3a1 [9]; forestomach): 3 fold; Aldh3a1 expression, fold increase (Aldh3a1 [9]; glandular stomach): 6.5 fold; Aldh1a1 expression level, fold increase (Aldh1a1): 2.5 fold; Aldh2 expression level, fold increase (Aldh2): 1.8 fold; AUC of blood acetaldehyde ([10]; 20 μmol SF/3 g diet/day 1 week, then 2.0 g/kg ethanol oral, control 83.8±6.1): 54.5 ± 5.1 µmol·h/L; Effect on blood acetaldehyde levels ([10]; 20 μmol SF/3 g/day 1 week, then 2.0 g/kg ethanol oral (FIG. 9)): remarkably lowered; Acetaldehyde elimination constant relative to control mice ([10]; SF-fed mice): roughly 2 times; Prevention of increase in blood acetaldehyde level ([10]; ascending phase, 20 μmol SF/3 g diet/day 1 week, then 2.0 g/kg ethanol oral): 30%; Elimination rate constant k of blood acetaldehyde ([10]; first order model, SF fed mice, control 0.21±0.02, p<0.01): 0.40 ± 0.03 h⁻¹; Initial blood level C0 of acetaldehyde ([10]; first order model, SF fed mice, control 28.62±2.1, NS): 32.38 ± 2.4 µM; Effect on total ALDH activity (ALDH in Nrf2−/− MEFs): altogether absent; Effect on total ALDH activity (ALDH in WT MEFs): increased in a dose dependent manner

For `O=c1cc(-c2ccccc2)oc2ccc3ccccc3c12` [BNF], which “Aldh3a1 mRNA expression, fold increase” value (Aldh3a1 [1]) is on record?
Its value is about 5 fold.
